# Data: publication PMC2397535 (Breast Cancer Research : BCR, 2008)
# Where two headings read alike, the source gives them in different places.
# How the values were obtained:
# MDA-MB-157 = assay: antiproliferative effect (GI50), breast cancer cell line; assay type: cell-based; conditions: Homo sapiens
# [1] = pharmacokinetics and biodistribution in BT-474 tumor-bearing mice (HPLC/MS-MS); assay type: in vivo; conditions: for Kp: intravenous; for Kp / half-life: 30 mg/kg
# Protocol: At various time points, mice (n = 4) were sacrificed and blood and tissues (tumor, liver, lung, heart, and muscles) were dissected. […] Frozen tissues were minced, then homogenized in an equal volume of ice-cold phosphate-buffered saline (Sigma P4417; Sigma-Aldrich) using a Polytron homogenizer (TP18-10; IKA, Staufen, Germany) and keeping the material cold during the homogenization. After the addition of 50 μL of internal standard (1 μg/mL) to analytical aliquots (25 to 250 μL) of plasma or tissue homogenate, the proteins were precipitated by the addition of an equal volume of acetonitrile and processed further for chromatographic separation. […] An aliquot (5 μL) of this solution was separated on a […] Ultra Cyano reverse-phase HPLC column (column size 50 × 1 mm, particle size 3 μm, preceded by a guard column: PhenomenexTM AJO-4304 Phenylpropyl, size 4 × 2 mm (Phenomenex, Torrance, CA, USA)) with a mobile phase consisting of a mixture of 0.2% formic acid in water (solvent A) and 0.2% formic acid in acetonitrile (solvent B). The column eluent was introduced directly into the ion source of the triple-quadrupole mass spectrometer Quattro UltimaTM (Micromass Limited, now part of Waters Corporation, Milford, MA, USA) controlled by MasslynxTM 4.0 software. Positive electrospray ionization multiple-reaction monitoring was used for the MS/MS detection of the analyte. Precursors to product ion transitions of m/z 466.[…]/z 308.20 for NVP-AUY922-NX and m/z 480.[…]/z 308.15 for IS VER814 were used. […] Regression analysis and further calculations were performed using QuanLynxTM 4.0 (Waters Corporation, Milford, MA, USA) and ExcelTM 2002 (Microsoft Corporation, Redmond, WA, USA). Concentrations of unknown samples were calculated from the peak area ratio of the product ion of the analytes to the product ion of its internal standard (ordinate) against the nominal concentration (abscissa). Assay linearity was indicated by an overall regression coefficient of 0.9975.
# [2] = system: human breast cancer explants; assay: clonogenic assay, six human breast cancer explants (summary values); assay type: cell-based
# SkBr3 = assay: antiproliferative effect (GI50), breast cancer cell line; assay type: cell-based; conditions: Homo sapiens, SK-BR-3
# MDA-MB-468 = assay: as above; assay type: cell-based; conditions: Homo sapiens
# [3] = 48 hours after compound administration
structure (smiles),measurement,setting,value
CCNC(=O)c1noc(-c2cc(C(C)C)c(O)cc2O)c1-c1ccc(CN2CCOCC2)cc1 [NVP-AUY922],GI50,MDA-MB-157,126 ± 37 nM
same,plasma concentrations,[1]; [3],below levels of quantitation
same,tumor concentration,[1]; [3],2.22 nmol/g
same,Kp,"[1]; female, athymic, mouse, heart, read-out: tissue exposure over 48 hours relative to plasma",5
same,half-life,"[1]; female, athymic, mouse, heart, iv, heart, 30 mg/kg single i.v., read-out: T 1/2 elimination λ_z (converted)",5.6 h
same,AUC(0-t),"[1]; female, athymic, mouse, iv, plasma, 30 mg/kg single i.v., read-out: AUC(0-8)",7.3 µM·h
same,Cmax,"[1]; female, athymic, mouse, iv, plasma, 30 mg/kg single i.v., read-out: Cmax",14.1 ± 4.14 µM
same,Kp,"[1]; female, athymic, mouse, liver, read-out: tissue exposure over 48 hours relative to plasma",7
same,half-life,"[1]; female, athymic, mouse, liver, iv, liver, 30 mg/kg single i.v., read-out: T 1/2 elimination λ_z (converted)",7.7 h
same,half-life,"[1]; female, athymic, mouse, liver, lung, heart, muscle, iv, liver, lung, heart, muscle, read-out: terminal elimination half-life from non-tumor tissues",5.5 to 8 h
same,Kp,"[1]; female, athymic, mouse, lung, read-out: tissue exposure over 48 hours relative to plasma",10
same,half-life,"[1]; female, athymic, mouse, lung, iv, lung, 30 mg/kg single i.v., read-out: T 1/2 elimination λ_z (converted)",5.5 h
same,Kp,"[1]; female, athymic, mouse, muscle, read-out: tissue exposure over 48 hours relative to plasma",5
same,half-life,"[1]; female, athymic, mouse, muscle, iv, muscle, 30 mg/kg single i.v., read-out: T 1/2 elimination λ_z (converted)",8 h
same,half-life,"[1]; female, athymic, mouse, plasma, iv, based on the last three time points, read-out: apparent terminal elimination half-life in plasma (converted)",10 h
same,half-life,"[1]; female, athymic, mouse, plasma, iv, plasma, 30 mg/kg single i.v., read-out: T 1/2 elimination λ_z (converted)",10.3 h
same,Kp,"[1]; female, athymic, mouse, tumor, read-out: tumor exposure relative to plasma",~47
same,half-life,"[1]; female, athymic, mouse, tumor, iv, tumor, 30 mg/kg single i.v., read-out: T 1/2 elimination λ_z (converted)",30 h
same,half-life,"[1]; female, athymic, mouse, tumor, iv, tumor, read-out: terminal half-life in tumor",25 to 30 h
same,AUC(0-8),"[1]; heart, 30 mg/kg single i.v.",32 nmol·h/g
same,Cmax,"[1]; heart, 30 mg/kg single i.v.",36.86 ± 7.42 nmol/g
same,dose-normalized plasma exposure,[1]; i.v. 20 mg/kg,0.28 µmol·h/L
same,dose-normalized plasma exposure,[1]; i.v. 30 mg/kg,0.24 µmol·h/L
same,AUC(0-8),"[1]; liver, 30 mg/kg single i.v.",53 nmol·h/g
same,Cmax,"[1]; liver, 30 mg/kg single i.v.",30.94 ± 5.58 nmol/g
same,AUC(0-8),"[1]; lung, 30 mg/kg single i.v.",71 nmol·h/g
same,Cmax,"[1]; lung, 30 mg/kg single i.v.",48.48 ± 10.11 nmol/g
same,AUC(0-8),"[1]; muscle, 30 mg/kg single i.v.",35 nmol·h/g
same,Cmax,"[1]; muscle, 30 mg/kg single i.v.",27.45 ± 6.64 nmol/g
same,Cmax (highest concentration),[1]; tumor,16.3 nmol/g
same,tumor drug level at 48 hours as share of Cmax,[1]; tumor,approximately 13%
same,AUC(0-8),"[1]; tumor, 30 mg/kg single i.v.",345 nmol·h/g
same,Cmax,"[1]; tumor, 30 mg/kg single i.v.",16.36 ± 3.84 nmol/g
same,GI50,"[2]; Homo sapiens, one highly resistant tumor explant, highest concentration evaluated, read-out: GI50",> 10000 nM
same,average GI70,[2]; five out of the six human breast cancer explants,379 nM
same,GI50,"[2]; five out of the six human breast cancer explants, read-out: average GI50",191 nM
same,GI50,SkBr3,3.3 ± 0.9 nM
same,GI50,MDA-MB-468,6.3 ± 2.6 nM
